According to PMC12040169 (PLOS Biology, 2025):

test: in vitro; conditions: human, hela cells, % viability

SMILES | viability at 28.5 h, 10 µM [%]
O=C(Nc1ccncc1)c1ccc(S(=O)(=O)N2CCCC2)cc1 [CBK287786] | 106
CC(C)(CNC(=O)c1ccc(=O)n(CC(=O)Nc2ccc(F)cc2)c1)c1cccc(F)c1 [CBK285955] | 86.7
COc1cc(NC(=O)CCN2CCN(C)CC2)cc(OC)c1 [CBK264193] | 92.5
CC(C)c1nc(CCN(C)C(=O)NCc2cc(-c3ccco3)on2)no1 [CBK307443] | 97.8
Cc1nn(CC(=O)N2CCC(C)CC2)c(=O)c2cc3sccc3n12 [CBK284083] | 80
O=C(Cn1c(-c2cccs2)cc2cccnc21)NC1CC1 [CBK282552] | 101
CN1N=C(c2ccccc2)CC1=O [CBK067774] | 96.4
Cc1cc(C(F)(F)F)nn1CCNC(=O)c1cn2ccsc2n1 [CBK307260] | 112
COc1cc(/C=N/NC(=O)C2COc3ccccc3O2)cc([N+](=O)[O-])c1O (stereo not shown) [CBK261480] | 89.1
O=C(NC1CCCCC1)NS(=O)(=O)c1ccc(CCNC(=O)c2cccs2)cc1 [CBK011888] | 86.3
O=C1NC2(CCc3ccccc31)CCN(C(=O)CCn1cccn1)C2 (stereo not shown) [CBK283352] | 91.2
Cc1cc2ccccc2c(=O)n1CCO [CBK015621] | 102
COc1nc2ccn(CC(O)CO)c(=O)c2cc1C#N (stereo not shown) [CBK307251] | 97.1
COc1ccc2c(c1OC)C(=O)N1c3ccccc3COC21 (stereo not shown) [CBK109960] | 103
COc1ccc(Cl)cc1NC(=O)C1CC(=O)N=C(N2CCOCC2)N1 (stereo not shown) [CBK268893] | 100
O=C(NCc1cccnc1)N1CCCC(CO)C1 (stereo not shown) [CBK156037] | 90.5
CCCS(=O)(=O)n1c(=O)n(CC(=O)c2ccccc2OC)c2ccccc21 [CBK106498] | 93.1
CCSc1nc(=O)c2c(n1C)NC(=O)CC2c1ccc(OC)cc1 (stereo not shown) [CBK307542] | 89.9
OC(CNc1nccnc1-c1ccsc1)COc1ccccc1 (stereo not shown) [CBK037057] | 96.3
Fc1ccccc1CN1CCC(Oc2nccnc2OCC2COc3ccccc3O2)CC1 (stereo not shown) [CBK082979T] | 101
COc1cc2cc(CN(Cc3cccnc3)C(=O)Nc3ccc(F)cc3)c(=O)[nH]c2cc1OC [CBK108193] | 93.3
COc1cccc(/C=C(/C#N)c2ccc(Cl)cc2)c1OCc1cccc(C(=O)O)c1 [CBK266721] | 97.2

SMILES | viability at 28.5 h, 10 µM [%]
O=C(c1ccncc1)c1ccc(N2CCN(C3CC(=O)N(Cc4ccccc4)C3=O)CC2)cc1 (stereo not shown) [CBK268934] | 106
O=[N+]([O-])c1ccccc1OCCNCc1ccccc1 [CBK265511G] | 101
O=C(NCc1ccccc1)C(Cc1ccc([N+](=O)[O-])cc1)N1C(=O)c2ccccc2C1=O (stereo not shown) [CBK261279] | 95.9
CC(C)NC(=O)/C(=C/c1c[nH]c2ncccc12)c1ccccc1 [CBK115357] | 95.8
Clc1nc(NCCN2CCOCC2)nc(N2CCCCCC2)n1 [CBK027412] | 98.9
Cn1ccnc1C(NC(=O)[C@@H]1C[C@@H]2C=C[C@H]1C2)c1ccc(F)cc1 (stereo partly shown) [CBK281483] | 95.5
Nc1nnc(CC(=O)N/N=C/c2cc(Br)c(O)c(Br)c2O)s1 [CBK262131] | 96
COc1cccc(C(=O)N2CCC(c3cc4ncccc4[nH]3)CC2)c1 [CBK283398] | 117
O=C(C1CC1)N1CC(n2nc(-c3cccs3)ccc2=O)C1 [CBK284650] | 85.1
CCCC/C=C/c1cnc(N)c(-c2ccc(N3CCOCC3)cc2)n1 [CBK063891] | 101
Cc1[nH]c(=O)c(C#N)c(C)c1CCC(=O)NCc1cn2ccccc2n1 [CBK306325] | 93
Cc1nn(CC(=O)NC2CCCC2)c(=O)c2cc3sccc3n12 [CBK284023] | 104
Cc1ccc(Cl)cc1N1CCN(C(=O)COc2ccc(S(=O)(=O)Nc3ccc(F)cc3)cc2)CC1 [CBK268229] | 92.1
CN1CCN(S(=O)(=O)c2ccc(-c3cc(C(F)(F)F)on3)s2)CC1 [CBK057780] | 96
CCCCCOc1ccc(C2NC(=O)NC2=O)cc1 (stereo not shown) [CBK287865] | 89
CNS(=O)(=O)c1ccc(C)c(C(=O)N(C)Cc2cnn(C)c2)c1 [CBK304026] | 89.1
CCN(CC(C)C#N)C(=O)c1cc2ccccc2oc1=O (stereo not shown) [CBK305992] | 87.8
CS(=O)(=O)N(CC(=O)O)c1ccc2c(c1)OCCO2 [CBK287151] | 96.6
c1cn2c(-c3ccoc3)cnc(N3CCOCC3)c2n1 [CBK091292] | 88.7
COc1cccc(-c2cnc3[nH]c(=O)n(CCCO)c3n2)c1 [CBK065036] | 93.3
N#Cc1ccc(NC(=O)CSc2cnn[nH]2)cc1 [CBK269931] | 87.7
CCN(CC)CCN1CCN(c2cc(-c3cc(C(F)(F)F)cc(C(F)(F)F)c3)ncn2)CC1 [CBK091195] | 94

SMILES | viability at 28.5 h, 10 µM [%]
Cc1occc1-c1nnc(SCC(=O)Nc2ccccc2)n1C [CBK270308] | 84.9
CCC(CC)(CC(=O)Nc1ccc2nc(C)sc2c1)C(=O)O [CBK297882] | 112
Cc1cc(C(=O)NCCc2ccc(S(N)(=O)=O)cc2)no1 [CBK268130] | 99.3
CCN1CCc2cc(CN3CCCC(Cn4ccnc4C)C3)ccc21 (stereo not shown) [CBK281965] | 96.9
CCOC(=O)c1[nH]c(=O)[nH]c1CSc1ccccn1 [CBK027725] | 94
O=C1NC[C@@H](CCC(=O)N2CCCC2)N2C[C@@H](NC(=S)Nc3ccccc3)C[C@@H]12 [CBK289004] | 113
O=C(c1cc(F)cc(F)c1)N1CCC(O)(c2cccnc2F)CC1 [CBK284361] | 92.7
COc1ccc(Cl)cc1NC(=O)CSc1nc2cc3ccccc3cc2[nH]1 [CBK268410] | 82.1
O=C(c1ccc2c(c1)OCCO2)N1CCC2(CCN(C(=O)c3cc(F)c(F)cc3F)C2)C1 (stereo not shown) [CBK131410] | 98.2
COC(=O)c1c(NC(=S)NCc2ccccn2)sc(C(=O)N(C)C)c1C [CBK267055] | 98.8
O=C(Cn1c(-c2cccs2)cc2cccnc21)NCC1CC1 [CBK282553] | 106
O=c1[nH]cc(-c2ccc(F)cc2)cc1CNCc1cccc(F)c1 [CBK284697] | 94.6
Cc1ccc(C)c(CC(=O)N(CCC(=O)O)C2CCOCC2)c1 [CBK305469] | 92.3
C=CCN1C(=O)C2(CC(=O)N(CCC3CCCCC3)C2=O)c2ccccc21 (stereo not shown) [CBK075160] | 107
Cc1csc2ncnc(N3CCN(C(=O)C4CC4)CC3)c12 [CBK023593] | 112
Cn1c(NC(=O)COc2ccccc2)nc2ccccc21 [CBK269783] | 98.7
Cc1ccccc1CN1CC[C@H]2[C@@H](C1)[C@H](c1ccsc1)CN2C(=O)c1ccccc1 [CBK285618] | 100
CCn1c(=O)c(C=Cc2cc(OC)c(O)c(OC)c2)nc2cc(C(=O)O)ccc21 [CBK296701] | 85.1
CCNC(=O)N1CC(C)N(CCCC(c2ccc(F)cc2)c2ccc(F)cc2)CC1C (stereo not shown) [CBK024912C] | 105
O=C1NC(c2ccccc2)Cc2onc(-c3ccccc3)c21 (stereo not shown) [CBK004409] | 90.9
CC1=NN(c2nc(-c3cccc([N+](=O)[O-])c3)cs2)C(=O)C1/N=N/c1ccc(C)c(Br)c1 (stereo not shown) [CBK262430] | 104
CCCCNCCOC1CCC[C@@H]1Cl (stereo partly shown) [CBK009839] | 97.7

SMILES | viability at 28.5 h, 10 µM [%]
COC(=O)c1sc2[nH]c(CN(C)Cc3ccco3)nc(=O)c2c1C [CBK306047] | 82.6
CNS(=O)(=O)c1ccc(NC(=O)c2cc(-c3ccc4c(c3)OCO4)nc3ccccc23)cc1 [CBK267735] | 99
Cc1oc(NC(=O)CN2CCN(c3ccc(F)cc3)CC2)c(C#N)c1C [CBK305907] | 86.7
CCOc1ccc(C(=O)N2CCN(S(=O)(=O)c3ccc(C)cc3C)CC2)cn1 [CBK298313] | 93.3
CC1CCN(c2nnnc3c2sc2nc(N4CCOCC4)c4c(c23)CC(C)(C)SC4)CC1 [CBK268062] | 90.4
CCC(=O)N1CCC(NC(=O)c2cnc(-c3ccncc3)s2)C1 (stereo not shown) [CBK305550] | 94.6
Cc1cc(Br)ccc1C(=O)Nc1ccc2ncccc2c1 [CBK159814] | 92.1
COc1cccc(NC(=O)C2CCCCC2C(=O)O)c1 (stereo not shown) [CBK262410] | 93.1
Cc1ccc(-n2c(SCC(=O)N3CCCCC3)nnc2-c2cc(Br)ccc2O)c(C)c1 [CBK269070] | 94.7
Cn1cccc1C(=O)Nc1ccccc1N1CCNCC1 [CBK029450T] | 95.4
CS(=O)(=O)N1CC2(CCN(Cc3ccccc3F)CC2)c2ccccc21 [CBK084004] | 103
Cc1ccc(NS(=O)(=O)c2ccc(OCC(=O)N3CCN(C)CC3)c(C)c2)cc1 [CBK267834] | 110
O=C(c1ccnc2ccccc12)N1CCc2ccccc21 [CBK200283] | 103
O=C(O)c1ccc(CN2CC[C@H](c3nc4ccccc4o3)C2)cc1 [CBK289387] | 108
CC1(C)CC(N(Cc2ccccc2)Cc2c[nH]cn2)CC(C)(C)N1 [CBK283196] | 103
CC(C)CSc1nnc(-c2ccccc2F)n1CC(C)C [CBK200091] | 95.8
CCOC(=O)CN1C(=O)S/C(=C/c2cc(C)n(-c3ccc(S(N)(=O)=O)cc3)c2C)C1=O [CBK265410] | 94
CCc1nn(CC(=O)N(CC)CC)c(=O)c2cc3sc(C)cc3n12 [CBK284121] | 86.2
CN1CCN(c2cc(C(F)(F)F)c3scc(C(=O)NCCC4=CCCCC4)c3n2)CC1 [CBK028474] | 110
Cc1cc(OCc2nc(-c3ccc(NC(=O)c4ccc5c(c4)OCO5)cc3)no2)ccc1Cl [CBK266673] | 95.7
CN(C)CCCNC(=O)c1cc2c(n(-c3ccc(Cl)c(Cl)c3)c1=O)CC(C)(C)CC2=O [CBK293952] | 87.4
CCCN(C)Cc1ccc(-c2cn(CC(=O)NCc3ccc(OCC(F)F)cc3)nn2)cc1 [CBK166365] | 106
